Results published in patent US20120294879A1, “CONSENSUS SEQUENCE FOR INFLUENZA A VIRUS” (priority 2009, published 2012).

Tests used:
Type in all cases: cell-based
[1] = tested on: splenocytes of HLA-A24 (A*2402) transgenic mice; parameters: key to A24: average IFN-γ spots forming cells per million splenocytes: — represents no positive ELISpot response
[2] = tested on: splenocytes of HLA-B7 (B*0702) transgenic mice; parameters: key to B7: average IFN-γ spots forming cells per million splenocytes: — represents no positive ELISpot response
[3] = tested on: splenocytes of HLA-DR2 (DRB1*1501) transgenic mice; parameters: key to DR2: average IFN-γ spots forming cells per million splenocytes: — represents no positive ELISpot response
[4] = tested on: splenocytes of HLA-DR3 (DRB1*0301) transgenic mice; parameters: key to DR3: average IFN-γ spots forming cells per million splenocytes: — represents no positive ELISpot response
[5] = tested on: splenocytes of HLA-DR4 (DRB1*0401) transgenic mice; parameters: key: — represents no positive ELISpot response

Row | Sequence | A24: average IFN-γ spots forming cells per million splenocytes [1] | B7: average IFN-γ spots forming cells per million splenocytes [2] | DR2: average IFN-γ spots forming cells per million splenocytes [3] | DR3: average IFN-γ spots forming cells per million splenocytes [4] | DR3: lowest concentration of peptide giving positive ELISpot response in peptide titration [4] | DR4: average IFN-γ spots forming cells per million splenocytes [5] | DR2: lowest concentration of peptide giving positive ELISpot response in peptide titration [3] | A24: lowest concentration of peptide giving positive ELISpot response in peptide titration [1]
1 | APIMFSNKMARLGKGYM | — | — | — | 175 ± 0(0.1) IFN-γ spots forming cells per million splenocytes | 175 ± 0(0.1) μg/ml | — |  | 
2 | DKLTQGRQTYDWTLNRN | — | — | — | 142 ± 6(0.1) IFN-γ spots forming cells per million splenocytes | 142 ± 6(0.1) μg/ml | — |  | 
3 | DQSLIIAARNIVRRAAV | — | — | — | 169 ± 12(0.1) IFN-γ spots forming cells per million splenocytes | 169 ± 12(0.1) μg/ml | — |  | 
4 | DYRYTYRCHRGDTQIQT | — | — | 109 ± 13(1) IFN-γ spots forming cells per million splenocytes | 166 ± 22(0.1) IFN-γ spots forming cells per million splenocytes | 166 ± 22(0.1) μg/ml | 76 ± 2(0.1) IFN-γ spots forming cells per million splenocytes | 109 ± 13(1) μg/ml | 
5 | ESADMSIGVTVIKNNMI | — | — | 75 ± 10(0.1) IFN-γ spots forming cells per million splenocytes | — |  | — | 75 ± 10(0.1) μg/ml | 
6 | ESKSMKLRTQIPAEMLA | — | — | 84 ± 20(0.1) IFN-γ spots forming cells per million splenocytes | — |  | — | 84 ± 20(0.1) μg/ml | 
7 | EVHIYYLEKANKIKSEK | — | — | — | — |  | 37 ± 11(0.1) IFN-γ spots forming cells per million splenocytes |  | 
8 | EYDAVATTHSWVPKRNR | — | — | — | — |  | 59 ± 2(0.1) IFN-γ spots forming cells per million splenocytes |  | 
9 | FFYRYGFVANFSMELPS | 210 ± 25 IFN-γ spots forming cells per million splenocytes | — | — | — |  | — |  | (0.1) μg/ml
10 | GPAKNMEYDAVATTHSW | — | — | — | 142 ± 45(0.1) IFN-γ spots forming cells per million splenocytes | 142 ± 45(0.1) μg/ml | 41 ± 9(0.1) IFN-γ spots forming cells per million splenocytes |  | 
11 | GRFYIQMCTELKLNDYE | — | — | — | 66 ± 7(1) IFN-γ spots forming cells per million splenocytes | 66 ± 7(1) μg/ml | — |  | 
12 | IGVTVIKNNMINNDLGP | — | — | 159 ± 53(0.1) IFN-γ spots forming cells per million splenocytes | — |  | — | 159 ± 53(0.1) μg/ml | 
13 | KHGTFGPVHFRNQVKIR | — | — | — | — |  | 316 ± 20(0.1) IFN-γ spots forming cells per million splenocytes |  | 
14 | KLLGINMSKKKSYINRT | — | — | — | 116 ± 10(0.1) IFN-γ spots forming cells per million splenocytes | 116 ± 10(0.1) μg/ml | — |  | 
15 | KRSYEQMETDGERQNAT | — | — | — | — |  | 52 ± 29(0.1) IFN-γ spots forming cells per million splenocytes |  | 
16 | KWVRELVLYDKEEIRRI | — | — | — | 614 ± 21(0.1) IFN-γ spots forming cells per million splenocytes | 614 ± 21(0.1) μg/ml | — |  | 
17 | KYPITADKRITEMIPER | — | — | — | 499 ± 4(0.1) IFN-γ spots forming cells per million splenocytes | 499 ± 4(0.1) μg/ml | — |  | 
18 | LASTTAKAMEQMAGSSE | — | — | — | — |  | 115 ± 21(1) IFN-γ spots forming cells per million splenocytes |  | 
19 | LEKANKIKSEKTHIHIF | — | — | — | — |  | 41 ± 10(0.1) IFN-γ spots forming cells per million splenocytes |  | 
